Source: ChEMBL document CHEMBL1158942, “Novel meroterpenoids from Cystoseira mediterranea: use of the crown-gall bioassay as a primary screen for lipophilic antineoplastic agents” (1991)

The compounds below were run on Agrobacterium tumefaciens (assay: Antitumor activity against Agrobacterium tumefaciens B6-induced crown gall tumor in potato tubers at 10000 uM after 15 to 20 days by crown gall tumor potato disk test).
Assay type: functional

In order of falling inhibition at 10000 µM:
1. C/C(=C\Cc1cc(O)cc(C)c1O)CC(=O)C[C@@]1(C)CC2C(O)=CC(O)=C[C@]1(C)C2(C)C [MEDITERRANEOL A]  88%
2. COc1cc(C)c(O)c(C/C=C(\C)CC(=O)CCCC(=O)C=C(C)C)c1 [MEDITERRANENONE]  76%
3. Cc1cc(O)cc2c1OC(C)(CC1=C3C[C@@H](O)C(C)(C)OC1C(C)(C)CCCC3=O)CC2 (stereo partly drawn) [CYSTOSEIROL]  73%
